The NIST ThermoML archive (doi:10.1016/j.fluid.2013.06.041)
± gives the expanded uncertainty stated by the source.

Experiment: xn = mol fraction of the nth substance listed
Details: 101 kPa, Liquid, Small sample (50 mg) DSC

CC(O)CO (stereo unspecified) [1,2-propanediol] + O
excess molar heat capacity (283.15 K, x1 = 0.02216): 1.78 ± 0.43 J/K/mol
excess molar heat capacity (283.15 K, x1 = 0.05617): 3.3 ± 0.44 J/K/mol
excess molar heat capacity (283.15 K, x1 = 0.07845): 4.67 ± 0.45 J/K/mol
excess molar heat capacity (283.15 K, x1 = 0.1224): 5.38 ± 0.46 J/K/mol
excess molar heat capacity (283.15 K, x1 = 0.1545): 5.22 ± 0.45 J/K/mol
excess molar heat capacity (283.15 K, x1 = 0.1667): 4.94 ± 0.45 J/K/mol
excess molar heat capacity (283.15 K, x1 = 0.1873): 4.62 ± 0.45 J/K/mol
excess molar heat capacity (283.15 K, x1 = 0.2272): 4.15 ± 0.45 J/K/mol
excess molar heat capacity (283.15 K, x1 = 0.2878): 2.67 ± 0.44 J/K/mol
excess molar heat capacity (283.15 K, x1 = 0.3965): 1.6 ± 0.43 J/K/mol
excess molar heat capacity (283.15 K, x1 = 0.4863): 0.67 ± 0.43 J/K/mol
excess molar heat capacity (283.15 K, x1 = 0.5274): 0.69 ± 0.43 J/K/mol
excess molar heat capacity (283.15 K, x1 = 0.6388): 0.77 ± 0.43 J/K/mol
excess molar heat capacity (283.15 K, x1 = 0.753): 0.72 ± 0.43 J/K/mol
excess molar heat capacity (283.15 K, x1 = 0.7757): 0.8 ± 0.43 J/K/mol
excess molar heat capacity (283.15 K, x1 = 0.9045): 0.26 ± 0.43 J/K/mol
excess molar heat capacity (283.15 K, x1 = 0.9677): 0.09 ± 0.42 J/K/mol
excess molar heat capacity (293.15 K, x1 = 0.02216): 2.01 ± 0.43 J/K/mol
excess molar heat capacity (293.15 K, x1 = 0.05617): 3.57 ± 0.44 J/K/mol
excess molar heat capacity (293.15 K, x1 = 0.07845): 5.18 ± 0.45 J/K/mol
excess molar heat capacity (293.15 K, x1 = 0.1224): 6.18 ± 0.46 J/K/mol
excess molar heat capacity (293.15 K, x1 = 0.1545): 6.19 ± 0.46 J/K/mol
excess molar heat capacity (293.15 K, x1 = 0.1667): 6.02 ± 0.46 J/K/mol
excess molar heat capacity (293.15 K, x1 = 0.1873): 5.79 ± 0.46 J/K/mol
excess molar heat capacity (293.15 K, x1 = 0.2272): 5.41 ± 0.46 J/K/mol
excess molar heat capacity (293.15 K, x1 = 0.2878): 4.01 ± 0.45 J/K/mol
excess molar heat capacity (293.15 K, x1 = 0.3965): 3.11 ± 0.44 J/K/mol
excess molar heat capacity (293.15 K, x1 = 0.4863): 1.88 ± 0.43 J/K/mol
excess molar heat capacity (293.15 K, x1 = 0.5274): 1.74 ± 0.43 J/K/mol
excess molar heat capacity (293.15 K, x1 = 0.6388): 1.63 ± 0.43 J/K/mol
excess molar heat capacity (293.15 K, x1 = 0.753): 1.32 ± 0.43 J/K/mol
excess molar heat capacity (293.15 K, x1 = 0.7757): 1.04 ± 0.43 J/K/mol
excess molar heat capacity (293.15 K, x1 = 0.9045): 0.38 ± 0.43 J/K/mol
excess molar heat capacity (298.15 K, x1 = 0.02216): 1.98 ± 0.43 J/K/mol
excess molar heat capacity (298.15 K, x1 = 0.05617): 3.62 ± 0.44 J/K/mol
excess molar heat capacity (298.15 K, x1 = 0.07845): 5.29 ± 0.45 J/K/mol
excess molar heat capacity (298.15 K, x1 = 0.1224): 6.43 ± 0.46 J/K/mol
excess molar heat capacity (298.15 K, x1 = 0.1545): 6.5 ± 0.46 J/K/mol
excess molar heat capacity (298.15 K, x1 = 0.1667): 6.37 ± 0.46 J/K/mol
excess molar heat capacity (298.15 K, x1 = 0.1873): 6.18 ± 0.46 J/K/mol
excess molar heat capacity (298.15 K, x1 = 0.2272): 5.86 ± 0.46 J/K/mol
excess molar heat capacity (298.15 K, x1 = 0.2878): 4.52 ± 0.45 J/K/mol
excess molar heat capacity (298.15 K, x1 = 0.3965): 3.65 ± 0.44 J/K/mol
excess molar heat capacity (298.15 K, x1 = 0.4863): 2.34 ± 0.44 J/K/mol
excess molar heat capacity (298.15 K, x1 = 0.5274): 2.17 ± 0.44 J/K/mol
excess molar heat capacity (298.15 K, x1 = 0.6388): 1.97 ± 0.43 J/K/mol
excess molar heat capacity (298.15 K, x1 = 0.753): 1.55 ± 0.43 J/K/mol
excess molar heat capacity (298.15 K, x1 = 0.7757): 1.24 ± 0.43 J/K/mol
excess molar heat capacity (298.15 K, x1 = 0.9045): 0.11 ± 0.42 J/K/mol
excess molar heat capacity (303.15 K, x1 = 0.02216): 1.95 ± 0.43 J/K/mol
excess molar heat capacity (303.15 K, x1 = 0.05617): 3.63 ± 0.44 J/K/mol
excess molar heat capacity (303.15 K, x1 = 0.07845): 5.35 ± 0.46 J/K/mol
excess molar heat capacity (303.15 K, x1 = 0.1224): 6.6 ± 0.46 J/K/mol
excess molar heat capacity (303.15 K, x1 = 0.1545): 6.73 ± 0.46 J/K/mol
excess molar heat capacity (303.15 K, x1 = 0.1667): 6.62 ± 0.46 J/K/mol
excess molar heat capacity (303.15 K, x1 = 0.1873): 6.49 ± 0.46 J/K/mol
excess molar heat capacity (303.15 K, x1 = 0.2272): 6.21 ± 0.46 J/K/mol
excess molar heat capacity (303.15 K, x1 = 0.2878): 4.94 ± 0.45 J/K/mol
excess molar heat capacity (303.15 K, x1 = 0.3965): 4.08 ± 0.45 J/K/mol
excess molar heat capacity (303.15 K, x1 = 0.4863): 2.75 ± 0.44 J/K/mol
excess molar heat capacity (303.15 K, x1 = 0.5274): 2.58 ± 0.44 J/K/mol
excess molar heat capacity (303.15 K, x1 = 0.6388): 2.3 ± 0.44 J/K/mol
excess molar heat capacity (303.15 K, x1 = 0.753): 1.76 ± 0.43 J/K/mol
excess molar heat capacity (303.15 K, x1 = 0.7757): 1.47 ± 0.43 J/K/mol
excess molar heat capacity (303.15 K, x1 = 0.9045): 0.14 ± 0.42 J/K/mol
excess molar heat capacity (313.15 K, x1 = 0.02216): 1.84 ± 0.43 J/K/mol
excess molar heat capacity (313.15 K, x1 = 0.05617): 3.59 ± 0.44 J/K/mol
excess molar heat capacity (313.15 K, x1 = 0.07845): 5.39 ± 0.46 J/K/mol
excess molar heat capacity (313.15 K, x1 = 0.1224): 6.81 ± 0.47 J/K/mol
excess molar heat capacity (313.15 K, x1 = 0.1545): 6.96 ± 0.47 J/K/mol
excess molar heat capacity (313.15 K, x1 = 0.1667): 6.95 ± 0.47 J/K/mol
excess molar heat capacity (313.15 K, x1 = 0.1873): 6.9 ± 0.47 J/K/mol
excess molar heat capacity (313.15 K, x1 = 0.2272): 6.72 ± 0.46 J/K/mol
excess molar heat capacity (313.15 K, x1 = 0.2878): 5.62 ± 0.46 J/K/mol
excess molar heat capacity (313.15 K, x1 = 0.3965): 4.77 ± 0.45 J/K/mol
excess molar heat capacity (313.15 K, x1 = 0.4863): 3.53 ± 0.44 J/K/mol
excess molar heat capacity (313.15 K, x1 = 0.5274): 3.35 ± 0.44 J/K/mol
excess molar heat capacity (313.15 K, x1 = 0.6388): 3.01 ± 0.44 J/K/mol
excess molar heat capacity (313.15 K, x1 = 0.753): 2.18 ± 0.44 J/K/mol
excess molar heat capacity (313.15 K, x1 = 0.7757): 1.96 ± 0.43 J/K/mol
excess molar heat capacity (313.15 K, x1 = 0.9045): 0.32 ± 0.43 J/K/mol
